# Source: patent US12624004B2 (Fudan University, priority 2019, dated 2026)
# What was measured:
# Female mice = assay: In vivo hot plate method analgesia test; conditions: intraperitoneal; for Maximum percentage effective analgesic (% MPE): Table 1-2, hot plate 55° C.; for Maximum percentage effective analgesic (% MPE) / % MPE (5 mg/kg): 5 mg/kg dose; for ED50: Mus musculus, ip, Table 4-2, hot plate; for % MPE: Table 4-2, hot plate 55° C.; for % MPE / Maximum percentage effective analgesia (% MPE): 10 mg/kg dose; for % MPE (5 mg/kg): Table 2-2, hot plate 55° C.; for Maximum percentage effective analgesia (% MPE): Table 5-2, hot plate 55° C.
# Experimental: Female mice weighing about 20 g were placed on a hot plate apparatus preheated to 55° C., and the latency of the hindfoot response of the mice was used as the pain threshold indicator. Animals were screened before the experiment, and those with response latency less than 5 s or more than 30 s were excluded. To prevent foot scalding, the maximum observation time was set at 60 s. The basal pain threshold was the average of two measurements, with a 5-min interval between measurements. pain thresholds were measured at 15 m, 30 m, 60 m and 120 m after intraperitoneal injection in each group of mice. The percentage effective analgesia (% MPE) was calculated according to the following formula: percentage effective analgesia (% MPE) (post-dose latency−pre-dose latency)/(60−pre-dose latency)×100%. ED50 values were calculated based on the effective percentage of analgesia using the software Graphpad prism 5.0 software.
# (§1) Female mice weighing about 20 g were placed on a hot plate apparatus preheated to 55° C., and the latency of the hindfoot response of the mice was used as the pain threshold indicator. Animals were selected before the experiment, and those with response latency less than 5 s or greater than 30 s were excluded. To prevent foot scalding, the maximum observation time was set at 60 s. The basal pain threshold was the average of two measurements, with a 5-min interval between measurements. pain thresholds were measured at 15 min, 30 min, 60 min and 120 min after intraperitoneal administration in each group of mice. The percentage of analgesic effectiveness (% MPE) was calculated according to the following equation. Percentage of effective analgesia (% MPE)_(Pre-dose incubation period−Incubation period after drug administration)/(60-Pre-dose incubation period)×100%. ED50 values were calculated based on the effective percentage of analgesia using GraphPad prism 5.0 software.
# as §1, with “were screened” for “were selected”, “measurements. Pain” for “measurements. pain”, “following formula.” for “following equation. Percentage of effective analgesia (% MPE)_(Pre-dose incubation period−Incubation period after drug administration)/(60-Pre-dose incubation period)×100%. ED50 values were calculated based on the effective percentage of analgesia using GraphPad prism 5.0 software.”
# ED50 values were calculated based on the effective percentage of analgesia using Graphpad Prism 5.0.
# Female mice weighing about 20 g were placed on a hot plate apparatus preheated to 55° C., and the latency of the hindfoot response of the mice was used as the pain threshold indicator. Animals were screened before the experiment, and those with response latency less than 5 s or more than 30 s were excluded. To prevent foot scalding, the maximum observation time was set at 60 s. The basal pain threshold was the average of two measurements, with a 5-min interval between measurements. pain thresholds were measured at 15 min, 30 min, 60 min and 120 min after intraperitoneal administration in each group of mice. The analgesic effective percentage (% MPE) was calculated according to the following formula: analgesic effective percentage (% MPE)=(latency after drug administration−latency before drug administration)/(60−latency before drug administration)×100%. ED50 values were calculated based on the effective percentage of analgesia using the software Graphpad prism 5.0.
# Female mice weighing about 20 g were placed on a hot plate apparatus preheated to 55° C. and the latency of the hindfoot response was used as an indicator of pain threshold. […]
# δ opioid receptor = target: T1, δ opioid receptor (Homo sapiens, UniProt P41143); assay: Competition binding assay on membranes of CHO cells expressing δ opioid receptor, [3H]-labeled ligand; conditions: for inhibition at 10 µM: 0.5 h, Table 1-1, 10 μM concentration of compound, read-out: δOR Binding rate (%); for Ki: Table 5-1, read-out: δOR Ki
# T1 construct: expressed in transfected cells; host or cells: CHO cells (membranes)
# Experimental: (§2) CHO cells expressing p opioid receptor, δ opioid receptor and κ opioid receptor were cultured in 10 cm^2 culture dishes (F-12 medium+10% neonatal bovine serum) for several days, and the culture fluid was aspirated after the cells had grown to the bottom of the dishes; 3 ml of PBS/EDTA solution (0.1M NaCl, 0.01M NaH2PO4, 0.04% EDTA) was added to digest the cells for 3-5 min. Add ice-cold homogenate (50 mM HEPES PH 7.4, 3 mM MgCl, 1 mM EGTA) to the centrifuge tube, transfer the solution and sediment to a homogenizer and homogenize; then transfer the homogenate to a centrifuge tube and centrifuge at 18000 rpm. Centrifuge for 15 min, two times; the obtained precipitate was homogenized with appropriate amount of 50 mM Tris-HCl, pH 7.4 buffer and divided into centrifuge tubes and stored at −70° C. in the refrigerator until use.
# (§3) The total binding tube was spiked with 20-30 μg of the expressed membrane receptor protein and […] ligand (1-2 nM), the corresponding non-specific binding tube was spiked with 1 μM of the corresponding ligand, and the sample tubes were spiked with various screened opioid ligands in a final volume of […], incubated at 30° C. for 30 min, and the reaction was terminated in ice water. […] The samples were filtered under negative pressure through GF/C (whatman) glass fiber filter paper on a Millipore sample collector. The reaction was rinsed three times with 4 ml of 50 mMV Tris-HCl (pH 7.4), the filter paper was dried and placed in 0.5 ml Eppendorf tubes with 0.5 ml of lipophilic scintillation solution, the radioactivity was measured by PERKIN ELMER PRI-CARB 2910 liquid scintillation counter and the inhibition rate was calculated. Inhibition rate (or binding rate)=(total binding rate dpm−sample tube dpm)/(total binding tube dpm−non-specific binding tube dpm)×100%
# (§4) IC50 was calculated using Prism 5.0 software. the Ki value was calculated as follows, Ki=IC50/(1+[IL]/Kd), [lL] is the concentration of the added labeled ligand and Kd is the equilibrium dissociation parameter of the labeled ligand.
# (§5) CHO cells expressing p opioid receptor, δ opioid receptor and κ opioid receptor were cultured in a 10 cm^2 culture dish (F-12 medium+10% neonatal bovine serum) for several days, and the culture fluid was aspirated after the cells grew to the bottom of the dish. 3 mL PBS/EDTA solution (0.1 M NaCl, 0.01 M NaH2PO4, 0.04% EDTA) was added to digest the cells for 3˜5 min, blew with a pipette to completely dislodge the cells. The cells were collected in a 40 mL centrifuge tube, centrifuged at 5000 rpm for 5 min. The supernatant was removed and the ice-cold homogenate (50 mM HEPES pH 7.4, 3 mM MgCl2, 1 mM EGTA) was added to the centrifuge tube. The solution and the precipitate were transferred to a homogenizer. Then the homogenate was transferred to a centrifuge tube and centrifuged at 18000 rpm for 15 min. The precipitate was centrifuged twice at 18000 rpm for 15 min. The obtained precipitate was homogenized by adding appropriate amount of 50 mM Tris-HCl, pH 7.4 buffer and divided into centrifuge tubes and stored at −70° C. in the refrigerator until use.
# (§6) The total binding tube was added with 20-30 μg of expressed membrane receptor protein and [3H]-labeled ligand (1-2 nM). The corresponding non-specific binding tube was added with 1 μM of the corresponding ligand, and the sample tubes were added with various screened opioid ligands in a final volume of 100 μL. All of them were incubated for 30 min at 30° C., and the reaction was terminated in ice water. The samples were filtered under negative pressure through GF/C (Whatman) glass fiber filter paper on a Millipore sample collector. The reaction was rinsed three times with 4 mL of 50 mM Tris-HCl (pH 7.4), the filter paper was dried and placed in 0.5 mL Eppendorf tubes with 0.5 mL of lipophilic scintillation solution. […]
# μ opioid receptor = target: T2, μ opioid receptor (Homo sapiens, UniProt P35372); assay: Competition binding assay on membranes of CHO cells expressing μ opioid receptor, [3H]-labeled ligand; conditions: for inhibition at 10 µM: Table 1-1, 10 μM concentration of compound, mean ± SD of three measurements, read-out: μOR Binding rate (%); for Ki: Table 5-1, read-out: μOR Ki
# T2 construct: expressed in transfected cells; host or cells: CHO cells (membranes)
# Experimental: as §2, §3, §4, §5, §6
# κ opioid receptor = target: T3, κ opioid receptor (Homo sapiens, UniProt P41145); assay: Competition binding assay on membranes of CHO cells expressing κ opioid receptor, [3H]-labeled ligand; conditions: for inhibition at 10 µM: 0.5 h, Table 1-1, 10 μM concentration of compound, read-out: κOR Binding rate (%)
# T3 construct: expressed in transfected cells; host or cells: CHO cells (membranes)
# Experimental: as §2, §3, §4, §5, §6
smiles,measurement,setting,value
COc1cccc(C2(OC(=O)c3ccccc3)CCC(N(C)S(=O)(=O)Cc3ccccc3)CC2CN(C)C)c1.Cl (stereo not drawn),Maximum percentage effective analgesic (% MPE),Female mice,37.2%
COc1cccc(C2(O)CCC(NS(=O)(=O)c3cccc(Cl)c3)CC2CN(C)C)c1 (stereo not drawn),inhibition at 10 µM,δ opioid receptor,14.5 ± 5.8%
same,inhibition at 10 µM,μ opioid receptor,79.7 ± 4.6%
same,inhibition at 10 µM,κ opioid receptor,35.9 ± 5.7%
COc1cccc(C2(OC(=O)c3ccccc3)CCC(N(C)S(=O)(=O)Cc3cccc(Cl)c3)CC2CN(C)C)c1.Cl (stereo not drawn),Maximum percentage effective analgesic (% MPE),Female mice,0%
COc1cccc(C2(OC(=O)c3ccccc3)CCC(NS(=O)(=O)c3cccc(Cl)c3)CC2CN(C)C)c1 (stereo not drawn),inhibition at 10 µM,δ opioid receptor,18.8 ± 8.6%
same,inhibition at 10 µM,μ opioid receptor,70.4 ± 3%
same,inhibition at 10 µM,κ opioid receptor,39 ± 5.5%
COc1cccc([C@]2(O)CCN(C(=O)Cc3cc(F)c(F)cc3F)CC2CN(C)C)c1.Cl (stereo partly drawn),ED50,Female mice,0.54 mg/kg
CN(C)C[C@@H]1CN(C(=O)Cc2cc(F)c(F)cc2F)CC[C@@]1(O)c1cccc(O)c1.Cl,% MPE,Female mice,29.7%
COc1cccc([C@@]2(O)CCN(C(=O)Cc3cc(F)c(F)cc3F)C[C@@H]2CN(C)C)c1.Cl,% MPE,Female mice,10.5%
CN(C)CC1CN(S(=O)(=O)Cc2ccccc2)CCC1(O)c1cccc(OC(F)(F)F)c1.Cl (stereo not drawn),% MPE (5 mg/kg),Female mice,20.2%
COc1cccc(C2(OC(F)F)CCN(S(=O)(=O)Cc3ccccc3)CC2CN(C)C)c1.Cl (stereo not drawn),% MPE (5 mg/kg),Female mice,8.38%
COc1cccc(C2(O)CCC(NS(=O)(=O)Cc3cccc(Cl)c3)CC2CN(C)C)c1.Cl (stereo not drawn) [1-(3-Chlorophenyl)-N-(3-((dimethylamino)methyl)-4-hydroxy-4-(3-methoxyphenyl)cyclohexyl)methanesulfonamide hydrochloride],Maximum percentage effective analgesic (% MPE),Female mice,15.2%
COc1cccc(C2(O)CCC(NS(=O)(=O)c3cccc(Cl)c3)CC2CN(C)C)c1.Cl (stereo not drawn) [3-Chloro-N-(3-((dimethylamino)methyl)-4-hydroxy-4-(3-methoxyphenyl)cyclohexyl)benzenesulfonamide hydrochloride],Maximum percentage effective analgesic (% MPE),Female mice,11.7%
COc1cccc(C2(OC(=O)c3ccccc3)CCC(NS(=O)(=O)c3cccc(Cl)c3)CC2CN(C)C)c1.Cl (stereo not drawn) [4-((3-Chlorophenyl)sulfonylamino)-2-((dimethylamino)methyl)-1-(3-methoxyphenyl)cyclohexyl benzoate hydrochloride],Maximum percentage effective analgesic (% MPE),Female mice,11.6%
COc1cccc(C2(O)CCC(S(=O)(=O)Cc3ccccc3)CC2CN(C)C)c1.Cl (stereo not drawn) [4-(Benzylsulfonyl)-2-((dimethylamino)methyl)-1-(3-methoxyphenyl)cyclohexane-1-ol hydrochloride],Maximum percentage effective analgesic (% MPE),Female mice,21.7%
"COc1cccc([C@]2(O)CCN(S(=O)(=O)Cc3ccccc3)C[C@H]2CN(C)C)c1.Cl [(3R,4S)-1-(Benzylsulfonyl)-3-((dimethylamino)methyl)-4-(3-methoxyphenyl)piperidin-4-ol hydrochloride]",ED50,Female mice,0.49 mg/kg
"COc1cccc(C2(O)CCN(C(=O)CCc3cccc(C(F)(F)F)c3)CC2CN(C)C)c1.Cl (stereo not drawn) [FWBE10, 1-(3-((Dimethylamino)methyl)-4-hydroxy-4-(3-methoxyphenyl)piperidin-1-yl)-3-(3-(trifluoromethyl)phenyl)propyl-1-one hydrochloride]",Maximum percentage effective analgesia (% MPE),Female mice,17.33%
same,Ki,δ opioid receptor,> 10000 nM
same,Ki,μ opioid receptor,219 ± 9.8 nM
"COc1cccc(C2(O)CCN(C(=O)Cc3cccc(Br)c3)CC2CN(C)C)c1.Cl (stereo not drawn) [FWBE11, 2-(3-Bromophenyl)-1-(3-((dimethylamino)methyl)-4-hydroxy-4-(3-methoxyphenyl)piperidin-1-yl)ethyl-1-one hydrochloride]",Maximum percentage effective analgesia (% MPE),Female mice,98.31%
same,Ki,δ opioid receptor,> 10000 nM
same,Ki,μ opioid receptor,57.6 ± 0.1 nM
"COc1cccc(C2(O)CCN(C(=O)Cc3c[nH]c4ccccc34)CC2CN(C)C)c1 (stereo not drawn) [FWBE13, 1-(3-((Dimethylamino)methyl)-4-hydroxy-4-(3-methoxyphenyl)piperidin-1-yl)-2-(1H-indol-3-yl)ethyl-1-one]",Maximum percentage effective analgesia (% MPE),Female mice,66.95%
same,Ki,μ opioid receptor,115 ± 4.1 nM
same,Ki,"κ opioid receptor; Table 5-1, read-out: κOR Ki",3100 ± 79.5 nM
COc1cccc(C2(O)CCC(NS(=O)(=O)c3ccccc3)CC2CN(C)C)c1.Cl (stereo not drawn) [N-(3-((Dimethylamino)methyl)-4-hydroxy-4-(3-methoxyphenyl)cyclohexyl)benzenesulfonamide hydrochloride],Maximum percentage effective analgesic (% MPE),Female mice,10.3%
COc1cccc(C2(O)CCC(N(Cc3ccccc3)S(=O)(=O)c3cccc(Cl)c3)CC2CN(C)C)c1.Cl (stereo not drawn) [N-Benzyl-3-chloro-N-(3-((dimethylamino)methyl)-4-hydroxy-4-(3-methoxyphenyl)cyclohexyl)benzenesulfonamide hydrochloride],Maximum percentage effective analgesic (% MPE),Female mice,6%
COc1cccc(C2(O)CCC(N(Cc3ccccc3)S(=O)(=O)c3ccccc3)CC2CN(C)C)c1.Cl (stereo not drawn) [N-Benzyl-N-(3-((dimethylamino)methyl)-4-hydroxy-4-(3-methoxyphenyl)cyclohexyl)benzenesulfonamide hydrochloride],Maximum percentage effective analgesic (% MPE),Female mice,0%
